Reference: PubChem BioAssay (NCI)
“And” between values parts separate entries of the source, which are not always exact repeats. Identical values can stand only once.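 Exposure lasted 48 hours, with cells grown in 96-well plates and compounds tested at five concentrations. The concentration for 50% growth inhibition is given as GI50. TGI: concentration producing complete growth inhibition.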

Experiments:
Experiment in all cases: inhibition of tumour cell growth, NCI panel, 48 h
SK-MEL-5 melanoma = tested on: SK-MEL-5 melanoma
NCI-H522 lung = tested on: NCI-H522 lung
SNB-19 CNS = tested on: SNB-19 CNS
UACC-62 melanoma = tested on: UACC-62 melanoma
SW-620 colon = tested on: SW-620 colon
SF-539 CNS = tested on: SF-539 CNS
NCI-H226 lung = tested on: NCI-H226 lung
LOX IMVI melanoma = tested on: LOX IMVI melanoma
MDA-MB-231 breast = tested on: MDA-MB-231 breast
PC-3 prostate = tested on: PC-3 prostate

| SMILES | TGI (SK-MEL-5 melanoma) [µM] | TGI (NCI-H522 lung) [µM] | TGI (SNB-19 CNS) [µM] | TGI (UACC-62 melanoma) [µM] | TGI (SW-620 colon) [µM] | TGI (SF-539 CNS) [µM] | TGI (NCI-H226 lung) [µM] | TGI (LOX IMVI melanoma) [µM] | GI50 (SK-MEL-5 melanoma) [µM] | GI50 (MDA-MB-231 breast) [µM] | TGI (MDA-MB-231 breast) | GI50 (NCI-H522 lung) [µM] | GI50 (SNB-19 CNS) [µM] | GI50 (UACC-62 melanoma) [µM] | GI50 (PC-3 prostate) [µM] | TGI (PC-3 prostate) [µM] | GI50 (SW-620 colon) [µM] | GI50 (NCI-H226 lung) [µM] | GI50 (LOX IMVI melanoma) [µM] | GI50 (SF-539 CNS) [µM] |
| --- | --- | --- | --- | --- | --- | --- | --- | --- | --- | --- | --- | --- | --- | --- | --- | --- | --- | --- | --- | --- |
| O=c1nc(NC(c2ccccc2)(c2ccccc2)c2ccccc2)ccn1CCNCCn1ccc(NC(c2ccccc2)(c2ccccc2)c2ccccc2)nc1=O | 20.5 | 21.5 | 23.4 | 24.1 | 31.9 | 29.6 | 34.7 | 7.86 |  |  |  |  |  |  |  |  |  |  |  |  |
| Cc1ccc([N+](=O)[O-])cc1NC(=O)c1cccc([N+](=O)[O-])c1O | 28.7 | 26.6 | > 100 | 38.1 | > 100 | 54.1 | 51.9 | > 100 |  |  |  |  |  |  |  |  |  |  |  |  |
| COc1cc2c(cc1OC)[C@H]1C(COC(=O)c3ccccc3)CSC(=Nc3ccccc3)N1CC2 (some centres not stated) | > 100 | 6.08 | > 100 | > 100 | > 100 | > 100 | > 100 | > 100 |  |  |  |  |  |  |  |  |  |  |  |  |
| CN(C)CCNC(=O)c1cccc2[nH]c(-c3cccnc3)nc12 | 30.8 |  | > 100 | 34.2 | 42.1 | 45.5 | 56.6 | 48.7 |  |  |  |  |  |  |  |  |  |  |  |  |
| COc1ccc(/C(=N\O)c2cc(C)c(OC)c(C)c2)cc1O | 0.068 | 0.0101 | > 100 | > 100 | > 100 |  | > 100 | > 100 | < 0.01 | 0.0438 | > 100 µM | < 0.01 | 0.0548 | < 0.01 | < 0.01 | > 100 | < 0.01 | 11.2 | 0.0189 |  |
| CN1C(=O)C(CC(=O)O)NC1=S (configuration not stated) | > 100 | > 100 | > 100 | > 100 | > 100 | > 100 |  | > 100 |  |  | > 100 µM |  |  |  |  | > 100 |  |  |  |  |
| C/C=C1/CCC2c3[nH]c4ccccc4c3CCN2C1 (configuration not stated) | > 100 | > 100 | > 100 | > 100 | > 100 | > 100 | > 100 |  |  |  |  |  |  |  |  |  |  |  |  |  |
| CN(C)C=[N+]=[N-] | > 100 | > 100 | > 100 | > 100 | > 100 | > 100 | > 100 |  |  |  |  |  |  |  |  |  |  |  |  |  |
| Cc1c(C(=O)CC(=O)C(=O)Nc2ccc(Cl)cc2)[n+](=O)c2ccccc2n1[O-] | > 100 | > 100 | > 100 | > 100 | > 100 | > 100 | > 100 |  |  |  |  |  |  |  |  |  |  |  |  |  |
| COc1ccc(S(=O)(=O)N/N=C/c2cc(I)cc([N+](=O)[O-])c2O)cc1OC | 38.3 |  | 88.3 | 59.7 | > 100 |  | 62.1 | > 100 |  |  |  |  |  |  |  |  |  |  |  |  |
| C=C1C(=O)OC2C=C(CCC(C)=O)C(C)C(OC(C)=O)CC12 (configuration not stated) |  |  | 37.2 | 27.4 | 1.22 | 28.5 | 32.8 | 3.34 |  |  |  |  |  |  |  |  |  |  |  |  |
| CCCC/C=C1\CCC(C)(CN(C)C)C1=O (configuration not stated) | > 100 | 75.9 |  | > 100 | > 100 | > 100 |  |  |  |  |  |  |  |  |  |  |  |  |  |  |
| Clc1ccc2nnnn2n1 | 6.19 | 11.2 | > 100 | 27.5 | 22 |  | 35.9 | > 100 | 2.24 | 2.64 | 7.01 µM | 3.01 | 31.8 | 2.77 |  |  | 3.88 | 4.84 | 3.64 |  |
| N#CCCN(c1ccc(C=Nc2ccccc2Cl)cc1)S(=O)(=O)c1ccccc1 | > 100 | > 100 | > 100 | > 100 | > 100 | > 100 | > 100 | > 100 |  |  |  |  |  |  |  |  |  |  |  |  |
| CN1CC[C@]2(C)c3cc(O)ccc3CC3CCCC1C32C (some centres not stated) | > 100 | > 100 | > 100 | > 100 | > 100 | > 100 | > 100 | > 100 |  |  |  |  |  |  |  |  |  |  |  |  |
| O=C(O)CCC(NC(=O)c1ccccc1)C(=O)O (configuration not stated) | > 100 | > 100 | > 100 | > 100 | > 100 | > 100 |  | > 100 |  |  |  |  |  |  |  |  |  |  |  |  |
| O=C(c1ccccc1)[C@@H]1C[C@H](Sc2ccccc2)c2cc(Cl)ccc2N1 | 26.9 | 48.6 | > 100 | 51.6 | 59.8 | 33.5 | 62.9 | 47.7 |  |  |  |  |  |  |  |  |  |  |  |  |
| COc1cc(C(O)C(=O)c2nc3ccc([N+](=O)[O-])cc3[nH]c2=O)ccc1O (configuration not stated) | > 100 | > 100 | > 100 | > 100 | > 100 | > 100 | > 100 | > 100 |  |  |  |  |  |  |  |  |  |  |  |  |

| SMILES | TGI (SK-MEL-5 melanoma) [µM] | TGI (NCI-H522 lung) [µM] | TGI (SNB-19 CNS) [µM] | TGI (UACC-62 melanoma) [µM] | TGI (SW-620 colon) [µM] | TGI (SF-539 CNS) [µM] | TGI (NCI-H226 lung) [µM] | TGI (LOX IMVI melanoma) [µM] | GI50 (SK-MEL-5 melanoma) [µM] | GI50 (MDA-MB-231 breast) [µM] | TGI (MDA-MB-231 breast) | GI50 (NCI-H522 lung) [µM] | GI50 (SNB-19 CNS) [µM] | GI50 (UACC-62 melanoma) [µM] | GI50 (PC-3 prostate) [µM] | TGI (PC-3 prostate) [µM] | GI50 (SW-620 colon) [µM] | GI50 (NCI-H226 lung) [µM] | GI50 (LOX IMVI melanoma) [µM] | GI50 (SF-539 CNS) [µM] |
| --- | --- | --- | --- | --- | --- | --- | --- | --- | --- | --- | --- | --- | --- | --- | --- | --- | --- | --- | --- | --- |
| Cc1cc(NS(=O)(=O)c2ccc(NC(=O)c3ccc(Cl)c4c(Nc5ccc(S(=O)(=O)N=C(N)N)cc5)c5ccccc5nc34)cc2)no1 |  | 61.6 | > 100 | > 100 |  | > 100 |  | 98.7 |  |  |  |  |  |  |  |  |  |  |  |  |
| O=C1C2C=CC(C2)C(c2ccc(O)cc2)N1O (configuration not stated) | > 100 | > 100 | > 100 | > 100 | > 100 |  | > 100 |  |  |  |  |  |  |  |  |  |  |  |  |  |
| C[N+]1(C)C/C(=C\c2ccccc2)C(=O)/C(=C/c2ccccc2)C1 | > 100 |  |  |  |  | > 100 | > 100 |  |  |  |  |  |  |  |  |  |  |  |  |  |
| CNC(=O)CC1NC(=O)c2csc(n2)-c2ccc(-c3nc(C4=NC(C(=O)N5CCCC5C(N)=O)CO4)cs3)nc2-c2csc(n2)-c2csc(n2)C(C(C)C)NC(=O)CNC(=O)c2csc(n2)C(C(C)C)NC(=O)c2nc1sc2C (configuration not stated) | > 25 |  | > 25 | > 25 | > 25 |  | > 25 | > 25 | > 25 | > 25 | 2.73 µM and > 25 µM |  | > 25 | > 25 |  |  | > 25 | > 25 | > 25 | > 25 |
| CC(O)c1ccc[n+](Cc2ccccc2)c1 (configuration not stated) | > 400 | > 400 | > 400 | > 400 | > 400 | > 400 | > 400 | > 400 |  |  |  |  |  |  |  |  |  |  |  |  |
| COC(=O)NN=C1C(C)(C)C(=O)C1(C)C | > 100 | > 100 |  | > 100 | > 100 | > 100 | > 100 | > 100 |  |  |  |  |  |  |  |  |  |  |  |  |
| Oc1ccccc1CNCC12CC3CC(CC(C3)C1)C2 | 26.9 |  | > 100 | 38.7 | 84.8 | > 100 | > 100 | 76 | 13.5 | 27.7 | > 100 µM |  | 60.3 | 17.8 | 26 | > 100 | 24.3 | 68.5 | 20.6 | 33.3 |
| Cc1[nH]c(=O)n2c(C)nnc2c1C(=O)Nc1cc(Cl)cc(Cl)c1 | 31 | 28.2 |  | 41 | > 100 | 78.4 | 68.5 | > 100 |  |  |  |  |  |  |  |  |  |  |  |  |
| CC1=NN(C(=O)CC(=O)NC(=O)CC(=O)Nc2ccccc2F)C(=O)C1N=Nc1ccc([N+](=O)[O-])cc1 (configuration not stated) | > 100 |  | > 100 | > 100 | 41.1 | > 100 | > 100 | 35.8 |  |  |  |  |  |  |  |  |  |  |  |  |
| COc1ccc2c(c1)Oc1cc(O)ccc1[C@@H]2c1ccccc1C(=O)NC(C)c1ccccc1 (some centres not stated) | 32.2 | 33.4 | 32.7 | 28.2 | 38.9 | 31 | 35.4 | 30.4 |  |  |  |  |  |  |  |  |  |  |  |  |
| Cc1ccc(NC(=O)C(=O)CC(=O)c2c(C)n([O-])c3ccccc3[n+]2=O)cc1 | 78.2 | 46.1 | > 100 | 32.6 | > 100 | 62.5 | > 100 | 45.4 |  |  |  |  |  |  |  |  |  |  |  |  |
| O=C(NCCCCCCNC(=O)OCCSCCn1cc(C(=O)NC(=O)OCc2ccccc2)c(=O)[nH]c1=O)OCCSCCn1cc(C(=O)NC(=O)OCc2ccccc2)c(=O)[nH]c1=O | > 100 | > 100 | > 100 | > 100 | > 100 |  | > 100 | > 100 |  |  |  |  |  |  |  |  |  |  |  |  |
| O=C1CCCC(=O)N1CCc1c[nH]c2ccccc12 | > 100 |  | > 100 | > 100 | > 100 | > 100 | > 100 |  |  |  |  |  |  |  |  |  |  |  |  |  |
| CC(C)(CN1CCCCC1)C(=O)/C=C/c1ccc(Cl)cc1 | 15.1 | 9.9 | 17 | 20.2 | 10.8 | 5.41 | 14.7 | 12.5 |  |  |  |  |  |  |  |  |  |  |  |  |
| Cn1ccc2c(C(=O)c3ccccc3)cccc2c1=O | > 100 | 81.1 |  | > 100 | > 100 | > 100 |  | > 100 |  |  |  |  |  |  |  |  |  |  |  |  |
| Fc1ccccc1C1SCc2nc3ccccc3n21 (configuration not stated) | 42.9 | > 100 | > 100 | > 100 | > 100 | > 100 | > 100 |  |  |  |  |  |  |  |  |  |  |  |  |  |
| c1ccc2cc3[s+]snc3cc2c1 | > 100 | > 100 | > 100 | > 100 | > 100 | > 100 | > 100 | > 100 |  |  |  |  |  |  |  |  |  |  |  |  |
| COC(=O)[C@]12CC=C3O[C@@H]4OC5(CCCCC5)O[C@@H]4C3[C@@H]1C(=O)CCC2=O (some centres not stated) | > 100 | > 100 | > 100 | > 100 | > 100 |  | > 100 | > 100 |  |  |  |  |  |  |  |  |  |  |  |  |
